Values quoted from earlier work, collected in publication PMC4368888, “Preclinical to Clinical Translation of CNS Transporter Occupancy of TD-9855, a Novel Norepinephrine and Serotonin Reuptake Inhibitor” (International Journal of Neuropsychopharmacology, 2015).

How the values were obtained:
SERT and NET = settings: in vitro; ref Wu et al., 2008; Tsuruda et al., 2010; cited from earlier work
SERT = SERT (Homo sapiens, UniProt P31645); settings: approved dose (100mg) for fibromyalgia; ref Nogami et al., 2013; cited from earlier work
SERT, sequence (P31645 whole entry): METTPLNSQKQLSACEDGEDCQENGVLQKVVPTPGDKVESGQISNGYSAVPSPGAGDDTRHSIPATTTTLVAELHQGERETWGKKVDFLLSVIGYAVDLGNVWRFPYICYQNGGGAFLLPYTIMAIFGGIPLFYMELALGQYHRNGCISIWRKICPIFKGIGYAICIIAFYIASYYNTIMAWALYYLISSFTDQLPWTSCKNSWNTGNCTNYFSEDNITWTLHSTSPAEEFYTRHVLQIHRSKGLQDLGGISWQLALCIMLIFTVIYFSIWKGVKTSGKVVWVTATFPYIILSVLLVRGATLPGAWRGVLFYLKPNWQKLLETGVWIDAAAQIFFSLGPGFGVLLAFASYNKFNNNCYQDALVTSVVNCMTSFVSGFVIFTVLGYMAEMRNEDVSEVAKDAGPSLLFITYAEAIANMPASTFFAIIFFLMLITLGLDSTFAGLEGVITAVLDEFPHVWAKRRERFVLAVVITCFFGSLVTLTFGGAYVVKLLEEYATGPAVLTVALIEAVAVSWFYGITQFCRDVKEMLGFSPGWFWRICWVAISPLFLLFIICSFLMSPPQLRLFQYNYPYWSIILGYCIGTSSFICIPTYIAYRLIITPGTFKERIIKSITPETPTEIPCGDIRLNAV

Row | SMILES | functional selectivity for NE (SERT and NET) | occupancy of SERT (SERT)
1 | CNCC[C@@H](Oc1ccccc1C)c1ccccc1 [atomoxetine] | ≥ 20 fold | –
2 | CCN(CC)C(=O)C1(c2ccccc2)CC1CN (centres unmarked) [milnacipran] | – | ~ 40%
